Test results: patent EP0263506B1, “Anticonvulsant composition containing amino acid derivative and use of said amino acid derivative” (priority 1986, dated 1988)
Read-outs that look alike come from different tables or passages of the source. Marks after values point to notes of the source that are not given here.

Experiments:
pentylenetetrazole = assay: Subcutaneous Pentylenetetrazole (Metrazol) Seizure Threshold Test (sc Met); format: in vivo, mice; details: for ED50: Mus musculus, sc, 0.5 h, read-out: sc Met ED50
Description: (§1) in the eye prior to application of the electrodes so as to prevent the death of the animal. Protection in this test was defined as the abolition of the hind limb tonic extension component of the seizure. The Subcutaneous Pentylenetetrazole (Metrazol^R) Seizure Threshold Test (sc Met) entailed the administration of 85 mg/kg of pentylenetetrazole as a 0.5% solution subcutaneously in the posterior midline. […] Protection was defined as the failure to observe even a threshold seizure (a single episode of clonic spasms of at least 5 sec duration). The effects of the compounds on forced and spontaneous motor activity were evaluated in mice using the Rotorod Test (Tox) or, in some cases, as indicated herein, a horizontal screen assay (HS). The animal was placed on a one-inch diameter knurled plastic rod rotating at 6 rpm after the administration of the drug. Normal mice can remain on a rod rotating at this speed indefinitely. Neurologic toxicity was defined as the failure of the animal to remain on the rod for one minute. The MES and so Met Tests were conducted on single animals while four mice were utilized for the Tox Test. The dose effect behavior of the compounds was evaluated using the above-described procedures by the administration of varying dose levels, treating normally eight mice at each dose. Table I includes an evaluation of the Median Effective Dose (ED50) and the Median Toxic Dose (TD50) of representative compounds. Mice were tested with varying doses of the anticonvulsant to define the limits of complete protection (or toxicity) and no protection (or no toxicity), as well as three points in between these limits. The Median Effective Dose (ED50) was defined as the dose which produced the Pharmacology. […] N-Acetyl-D,L-alanine-N'-benzylamide was tested at […] as well. […] Maximal electroshock seizures (MES) were elicited with a 60 cycle alternating current of 50 mA intensity (5-7 times that necessary to elicit minimal electroschock seizures) delivered for 0.2 sec via corneal electrodes. A drop of 0.9% saline was instilled desired endpoint in 50% of the animals. The Median Toxicity Dose (TD50) was the dose which elicited evidence of minimal neurological toxicity in 50% of the animals.

[1] = tested on: Maximal electroshock seizures (MES); assay: Maximal electroshock seizure test (MES); format: in vivo, mice; details: Mus musculus, read-out: MES ED50
Description: as §1

[2] = Horizontal screen assay (HS), neurologic toxicity; format: in vivo; details: mouse; mice; Median Toxic Dose; evaluated using a horizontal screen assay (HS) as opposed to the Rotorod Test; read-out: Tox TD50
Description: as §1
The TD50 of D,L-α-acetamido-N-benzyl-3-thiopheneacetamide, D,L-α-acetamido-N-benzyl-2-thiopheneacetamide, D,L-α-acetamido-N-benzyl-2-furanacetamide, D,L-α-acetamido-N-benzyl-2-pyrroleacetamide, D,L-2-acetamido-N-benzyl-2-ethoxyacetamide and D,L-2-acetamido-N-benzyl-2-methoxyacetamide were evaluated using a horizontal screen assay (HS) as opposed to the Rotorod Test.

[3] = tested on: male Carworth Farms #1 mice; assay: Rotorod Test (Tox), neurologic toxicity; format: in vivo; details: Median Toxic Dose, comparison drugs
Description: The effects of the compounds on forced and spontaneous motor activity were evaluated in mice using the Rotorod Test (Tox) or, in some cases, as indicated herein, a horizontal screen assay (HS). The animal was placed on a one-inch diameter knurled plastic rod rotating at 6 rpm after the administration of the drug. Normal mice can remain on a rod rotating at this speed indefinitely. Neurologic toxicity was defined as the failure of the animal to remain on the rod for one minute. The MES and so Met Tests were conducted on single animals while four mice were utilized for the Tox Test. The dose effect behavior of the compounds was evaluated using the above-described procedures by the administration of varying dose levels, treating normally eight mice at each dose. […] Mice were tested with varying doses of the anticonvulsant to define the limits of complete protection (or toxicity) and no protection (or no toxicity), as well as three points in between these limits. […] The Median Toxicity Dose (TD50) was the dose which elicited evidence of minimal neurological toxicity in 50% of the animals.

[4] = mice, 85 mg/kg pentylenetetrazole subcutaneously, observed for 30 minutes
[5] = mice, 50 mA, 60 cycle, 0.2 sec via corneal electrodes, abolition of hind limb tonic extension

| Compound | ED50 [1] [mg/kg] | TD50 [2] [mg/kg] | ED50 [1, 5] [mg/kg] | further results |
| --- | --- | --- | --- | --- |
| CCC1(c2ccccc2)C(=O)NC(=O)NC1=O [phenobarbital, reference compound] | 22 | – | – | ED50 (pentylenetetrazole): 13 mg/kg |
| CC(=O)NC(C(=O)NCc1ccccc1)c1cccs1 (racemic) [D,L-α-Acetamido-N-benzyl-2-thiopheneacetamide] | 44.8 | 30 to 100 | – | – |
| CC(=O)NC(C(=O)NCc1ccccc1)c1ccco1 (racemic) [D,L-α-Acetamido-N-benzyl-2-furanacetamide] | 10.3 | 40 | – | – |
| CC(=O)NC(C(=O)NCc1ccccc1)c1ccsc1 (racemic) [D,L-α-Acetamido-N-benzyl-3-thiopheneacetamide] | 87.8 | > 100 | – | – |
| CC(=O)NC(C(=O)NCc1ccccc1)c1ccc[nH]1 (racemic) [D,L-α-Acetamido-N-benzyl-2-pyrroleacetamide] | 16.1 | < 100 | – | – |
| CCC1(c2ccccc2)NC(=O)N(C)C1=O (stereo not shown) [mephenytoin] | – | – | 61 | ED50 (pentylenetetrazole; [4]): 31 mg/kg; Tox TD50 [3]: 154 mg/kg |
| CCOC(NC(C)=O)C(=O)NCc1ccccc1 (racemic) [D,L-2-Acetamido-N-benzyl-2-ethoxyacetamide] | 62 | > 112 | – | – |
| O=C1NC(=O)C(c2ccccc2)(c2ccccc2)N1 [phenytoin, reference compound] | – | – | 10 | sc Met ED50 (pentylenetetrazole; [4]): not effective |
| NC(=O)NC(=O)Cc1ccccc1 [phenacemide] | – | – | 87 | ED50 (pentylenetetrazole; [4]): 116 mg/kg; Tox TD50 [3]: 421 (337-549)* mg/kg |
| COC(NC(C)=O)C(=O)NCc1ccccc1 (racemic) [D,L-2-Acetamido-N-benzyl-2-methoxyacetamide] | 98.3 | < 300 | – | – |
